Paper PMC11079024, “Identification of a family of species-selective complex I inhibitors as potential anthelmintics” (Nature Communications, 2024)
Values joined by “and” are separate entries in the source; they are usually repeats but may differ in a detail not shown here. Equal entries are not always repeated. Where two headings read alike, the source gives them in different places.

Key:
[1] = target: C. elegans (N2) complex I (NADH:ubiquinone oxidoreductase) (Caenorhabditis elegans, UniProt P24887+Q93873+Q94360); assay: biochemical; type: biochemical; settings: for activity at 15 µM / Complex I activity, dose-response data / activity at 37.5 µM / activity at 75 µM: C. elegans; for activity at 15 µM / activity at 37.5 µM / activity at 75 µM: read-out: Complex I activity, dose-response data
Chain of C. elegans (N2) complex I (NADH:ubiquinone oxidoreductase) (Q94360 17-199): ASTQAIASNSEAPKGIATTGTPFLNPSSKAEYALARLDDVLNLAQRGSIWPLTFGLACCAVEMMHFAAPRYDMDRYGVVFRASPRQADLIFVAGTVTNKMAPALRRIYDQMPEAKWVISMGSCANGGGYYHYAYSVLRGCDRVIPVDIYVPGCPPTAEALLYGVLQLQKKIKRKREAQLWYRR
Chain of C. elegans (N2) complex I (NADH:ubiquinone oxidoreductase) (P24887 whole entry): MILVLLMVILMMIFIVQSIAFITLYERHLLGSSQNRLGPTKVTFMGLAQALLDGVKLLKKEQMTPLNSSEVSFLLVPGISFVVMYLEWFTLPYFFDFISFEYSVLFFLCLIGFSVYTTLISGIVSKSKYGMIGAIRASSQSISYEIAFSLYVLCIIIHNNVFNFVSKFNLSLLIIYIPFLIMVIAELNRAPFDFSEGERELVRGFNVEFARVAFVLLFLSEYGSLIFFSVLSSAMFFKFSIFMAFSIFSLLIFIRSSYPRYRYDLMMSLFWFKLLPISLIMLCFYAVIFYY
Chain of C. elegans (N2) complex I (NADH:ubiquinone oxidoreductase) (Q93873 31-482): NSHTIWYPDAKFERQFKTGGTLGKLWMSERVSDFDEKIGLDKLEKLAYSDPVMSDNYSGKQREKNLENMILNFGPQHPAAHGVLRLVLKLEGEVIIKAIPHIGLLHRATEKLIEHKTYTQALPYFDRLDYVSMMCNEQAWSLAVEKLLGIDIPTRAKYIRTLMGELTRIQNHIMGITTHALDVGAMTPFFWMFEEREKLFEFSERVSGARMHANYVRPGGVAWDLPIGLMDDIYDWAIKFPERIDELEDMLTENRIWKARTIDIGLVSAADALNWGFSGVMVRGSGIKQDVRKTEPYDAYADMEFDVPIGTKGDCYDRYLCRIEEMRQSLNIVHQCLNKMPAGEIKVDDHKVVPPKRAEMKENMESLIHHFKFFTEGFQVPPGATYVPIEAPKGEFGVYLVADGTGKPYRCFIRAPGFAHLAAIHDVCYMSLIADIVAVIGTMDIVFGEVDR
Method in brief: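 Complex I rate: initial linear slope of A600 over 15 min, expressed as percent of solvent control. Triple freeze-thawed mitochondria (0.2 mg/mL) in KPi pH 7.5, BSA 3 mg/mL, NADH 80 μM, decylubiquinone 60 μM, DCIP 160 μM, antimycin A, KCN.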

[2] = target: B. taurus (heart) complex I (Bos taurus, UniProt P03887+P17694+P42026); assay: biochemical; type: biochemical
Chain of B. taurus (heart) complex I (P03887 whole entry): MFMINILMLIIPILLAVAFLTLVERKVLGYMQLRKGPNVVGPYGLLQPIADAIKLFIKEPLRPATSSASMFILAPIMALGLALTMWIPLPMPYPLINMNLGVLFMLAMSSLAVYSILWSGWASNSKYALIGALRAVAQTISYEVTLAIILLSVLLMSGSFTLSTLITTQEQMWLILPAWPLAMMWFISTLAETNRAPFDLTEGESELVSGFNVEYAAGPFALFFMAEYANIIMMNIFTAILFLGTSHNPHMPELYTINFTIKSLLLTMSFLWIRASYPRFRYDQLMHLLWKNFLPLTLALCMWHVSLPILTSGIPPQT
Chain of B. taurus (heart) complex I (P17694 34-463): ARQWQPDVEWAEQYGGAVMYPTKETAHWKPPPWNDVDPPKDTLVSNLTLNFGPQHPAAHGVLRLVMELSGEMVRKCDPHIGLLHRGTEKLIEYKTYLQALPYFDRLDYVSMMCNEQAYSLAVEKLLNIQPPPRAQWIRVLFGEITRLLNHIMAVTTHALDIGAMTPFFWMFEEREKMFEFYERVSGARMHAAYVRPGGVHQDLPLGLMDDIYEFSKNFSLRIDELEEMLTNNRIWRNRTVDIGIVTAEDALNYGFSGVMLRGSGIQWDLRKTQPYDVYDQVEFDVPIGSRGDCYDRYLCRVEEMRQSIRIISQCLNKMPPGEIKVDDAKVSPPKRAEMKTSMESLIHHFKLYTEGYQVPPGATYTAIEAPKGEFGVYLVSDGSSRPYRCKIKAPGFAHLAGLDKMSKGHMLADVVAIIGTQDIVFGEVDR
Chain of B. taurus (heart) complex I (P42026 38-216): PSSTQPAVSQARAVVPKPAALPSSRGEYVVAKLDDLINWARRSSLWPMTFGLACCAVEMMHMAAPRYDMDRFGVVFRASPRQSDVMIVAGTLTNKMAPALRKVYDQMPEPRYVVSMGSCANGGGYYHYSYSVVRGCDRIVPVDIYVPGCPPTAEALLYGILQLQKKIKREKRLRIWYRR
Method in brief: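 Complex I activity followed as DCIP reduction (600 nm, 30 s reads, 15 min) with 80 μM NADH and 60 μM decylubiquinone in 25 mM KPi pH 7.5 containing 2 μM antimycin A and 2 mM KCN. Freeze-thawed mouse or bovine heart mitochondria at 0.2 mg/mL; initial-rate percent of solvent control, single-point 100 μM or dose-response.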

[3] = dose 15 µM, individual replicates (Rep)
[4] = dose 37.5 µM, individual replicates (Rep)
[5] = dose 75 µM, individual replicates (Rep)
[6] = B. taurus, Mean of replicates, read-out: Complex I activity, dose-response data
[7] = B. taurus, individual replicates (Rep), read-out: Complex I activity, dose-response data

COc1cc2c(cc1OC)C(c1ccc(-c3ccc(Cl)c(Cl)c3)o1)=NCC2 [NPD3577]
activity at 15 µM ([1]; dose 15 µM, Mean of replicates): 62.2% | Complex I activity, dose-response data [1, 3]: 63.065 and 59.782 and 63.349 | activity at 15 µM [1, 3]: 62.5% | activity at 37.5 µM ([1]; dose 37.5 µM, Mean of replicates): 42.6% | Complex I activity, dose-response data [1, 4]: 41.693 and 41.389 and 49.686 | activity at 37.5 µM [1, 4]: 37.8% | activity at 75 µM ([1]; dose 75 µM, Mean of replicates): 40.7% | Complex I activity, dose-response data [1, 5]: 47.397 and 37.818 and 40.786 | activity at 75 µM [1, 5]: 36.7% | IC50 ([1]; wild-type (N2) mitochondria, read-out: C. elegans Complex I IC50): 12.1 µM | activity at 0.0001 µM ([2]; B. taurus, dose 0.0001 µM, Mean of replicates, read-out: Complex I activity, dose-response data): 105% | Complex I activity, dose-response data ([2]; B. taurus, dose 0.0001 µM, individual replicates (Rep)): 103.121 and 101.731 and 110.652 | activity at 0.0001 µM ([2]; B. taurus, dose 0.0001 µM, individual replicates (Rep), read-out: Complex I activity, dose-response data): 106% | activity at 0.0005 µM [2, 6]: 100% | activity at 0.0005 µM [2, 7]: 100% | activity at 0.001 µM ([2]; B. taurus, dose 0.001 µM, Mean of replicates, read-out: Complex I activity, dose-response data): 106% | Complex I activity, dose-response data ([2]; B. taurus, dose 0.001 µM, individual replicates (Rep)): 115.208 and 104.399 and 94.945 and 110.770 | activity at 0.0025 µM ([2]; B. taurus, dose 0.0025 µM, Mean of replicates, read-out: Complex I activity, dose-response data): 109% | Complex I activity, dose-response data ([2]; B. taurus, dose 0.0025 µM, individual replicates (Rep)): 105.176 and 104.207 and 109.459 | activity at 0.0025 µM ([2]; B. taurus, dose 0.0025 µM, individual replicates (Rep), read-out: Complex I activity, dose-response data): 117% | activity at 0.005 µM ([2]; B. taurus, dose 0.005 µM, Mean of replicates, read-out: Complex I activity, dose-response data): 109% | Complex I activity, dose-response data ([2]; B. taurus, dose 0.005 µM, individual replicates (Rep)): 109.688 and 97.845 and 112.943 | activity at 0.005 µM ([2]; B. taurus, dose 0.005 µM, individual replicates (Rep), read-out: Complex I activity, dose-response data): 116% | activity at 0.013 µM ([2]; B. taurus, dose 0.013 µM, Mean of replicates, read-out: Complex I activity, dose-response data): 106% | Complex I activity, dose-response data ([2]; B. taurus, dose 0.013 µM, individual replicates (Rep)): 116.009 and 85.825 and 105.823 and 114.478 | activity at 0.025 µM ([2]; B. taurus, dose 0.025 µM, Mean of replicates, read-out: Complex I activity, dose-response data): 115% | Complex I activity, dose-response data ([2]; B. taurus, dose 0.025 µM, individual replicates (Rep)): 117.057 and 109.262 and 110.097 | activity at 0.025 µM ([2]; B. taurus, dose 0.025 µM, individual replicates (Rep), read-out: Complex I activity, dose-response data): 124% | activity at 0.063 µM ([2]; B. taurus, dose 0.063 µM, Mean of replicates, read-out: Complex I activity, dose-response data): 111% | Complex I activity, dose-response data ([2]; B. taurus, dose 0.063 µM, individual replicates (Rep)): 116.393 and 107.485 and 112.565 | activity at 0.063 µM ([2]; B. taurus, dose 0.063 µM, individual replicates (Rep), read-out: Complex I activity, dose-response data): 107% | activity at 0.125 µM ([2]; B. taurus, dose 0.125 µM, Mean of replicates, read-out: Complex I activity, dose-response data): 106% | Complex I activity, dose-response data ([2]; B. taurus, dose 0.125 µM, individual replicates (Rep)): 115.491 and 103.072 and 105.491 | activity at 0.125 µM ([2]; B. taurus, dose 0.125 µM, individual replicates (Rep), read-out: Complex I activity, dose-response data): 100% | activity at 0.313 µM ([2]; B. taurus, dose 0.313 µM, Mean of replicates, read-out: Complex I activity, dose-response data): 109% | Complex I activity, dose-response data ([2]; B. taurus, dose 0.313 µM, individual replicates (Rep)): 109.249 and 104.276 and 103.070 | activity at 0.313 µM ([2]; B. taurus, dose 0.313 µM, individual replicates (Rep), read-out: Complex I activity, dose-response data): 118% | activity at 0.625 µM ([2]; B. taurus, dose 0.625 µM, Mean of replicates, read-out: Complex I activity, dose-response data): 99% | Complex I activity, dose-response data ([2]; B. taurus, dose 0.625 µM, individual replicates (Rep)): 89.823 and 107.117 and 107.828 | activity at 0.625 µM ([2]; B. taurus, dose 0.625 µM, individual replicates (Rep), read-out: Complex I activity, dose-response data): 91.2% | activity at 1.5 µM [2, 6]: 100% | activity at 1.5 µM [2, 7]: 100% | activity at 3 µM ([2]; B. taurus, dose 3 µM, Mean of replicates, read-out: Complex I activity, dose-response data): 95.5% | Complex I activity, dose-response data ([2]; B. taurus, dose 3 µM, individual replicates (Rep)): 93.418 and 99.797 and 99.095 | activity at 3 µM ([2]; B. taurus, dose 3 µM, individual replicates (Rep), read-out: Complex I activity, dose-response data): 89.6% | activity at 15 µM ([2]; B. taurus, dose 15 µM, Mean of replicates, read-out: Complex I activity, dose-response data): 43.4% | Complex I activity, dose-response data ([2]; B. taurus, dose 15 µM, individual replicates (Rep)): 55.501 and 46.406 and 43.941 and 27.922 | activity at 37.5 µM ([2]; B. taurus, dose 37.5 µM, Mean of replicates, read-out: Complex I activity, dose-response data): 26.1% | Complex I activity, dose-response data ([2]; B. taurus, dose 37.5 µM, individual replicates (Rep)): 16.844 and 31.768 and 25.172 | activity at 37.5 µM ([2]; B. taurus, dose 37.5 µM, individual replicates (Rep), read-out: Complex I activity, dose-response data): 30.8% | activity at 75 µM ([2]; B. taurus, dose 75 µM, Mean of replicates, read-out: Complex I activity, dose-response data): 23.8% | Complex I activity, dose-response data ([2]; B. taurus, dose 75 µM, individual replicates (Rep)): 15.504 and 26.993 and 22.808 | activity at 75 µM ([2]; B. taurus, dose 75 µM, individual replicates (Rep), read-out: Complex I activity, dose-response data): 30% | IC50 ([2]; heart mitochondria, read-out: B. taurus Complex I IC50): 9.49 µM
